The target of one test is T1, human CB1 (hCB1) (Homo sapiens, UniProt P21554).
T1 construct: (cDNA clone) CNR01L000
As to the kind of experiment: 35S GTPγS binding assay, hCB1 agonist. The class given is biochemical. The text has this:
cDNA expression clones for human CB1 (hCB1, Genbank Accession No. AY225225) and human CB2 (hCB2, Genbank Accession No. AY242132) expressed in vector pcDNA3.1+ were purchased from UMR cDNA Resource Center, Rolla, Mo. (Clone ID CNR01L000 for hCB1; CNR0200000 for hCB2).
Stable, HEK-293-derived cell lines that recombinantly express hCBI or hCB2 were established. In brief, the clone hCB1 (CNR IL) or hCB2 (CNR2) was transfected into human embryonic kidney cells (HEK-293) using Lipofectamine 2000 (Gibco, Cat#11668-019) according to the manufacturer's protocol. Transfected clones were isolated by single colony purification and clones were screened for receptor expression using a whole cell, ^3H—CP 55,940 radioligand binding assay. HEK-293 stable cells were maintained in Dulbecco's modified Eagles medium (DMEM) containing 10% fetal bovine serum, 2 mM L-glutamine and 0.5 mg/mL G-418.
Membranes were isolated from transfected cells as follows. Monolayers of cultured cells were washed twice with phosphate-buffered saline (PBS). Cells were scraped into 20 mM HEPES, pH 7.4, 10 mM EDTA containing complete cocktail protease inhibitors (Roche, Catalog #11 697 498 001) and were homogenized by an electric-powered mechanical probe homogenizer (Omni GLH; probe G7-195S) for 40 seconds at 7000 rpm. Homogenates were centrifuged 10 minutes at 1000×g at 4° C. The supernatant was collected and was centrifuged for 1 hour at 40,000×g. The supernatant was then decanted and the resulting pellet was re-suspended in 20 mM HEPES, pH 7.4, 5 mM MgCl2, 1 mM EDTA, 10% sucrose with complete cocktail protease inhibitors. Protein concentration of membrane suspensions were measured by Bradford Protein Assay using bovine serum albumin as the standard (BioRad catalog #500-0006). Protein concentrations of membrane suspensions were adjusted with the final buffer in the range of 5 to 10 mg/mL and were stored at −80° C. until further use.
Functional assays which monitor G-protein coupled receptor or downstream cellular responses can be used to characterize potential CB1 receptor and/or CB2 receptor agonist or antagonist activities. Direct activation (or inhibition of activation) can be monitored using a GTPγS assay (membrane-based assay) or cAMP assay (whole cell-based assay).
^35S GTPγS binding assays were performed by incubating recombinant cell membranes prepared above (5 μg) in the presence of scintillation proximity assay beads (SPA beads, Catalog #RPNQ0252 GE Healthcare, Buckinghamshire, England) in GTPγS binding buffer [50 mM HEPES (pH 7.4), 100 mM NaCl, 5 mM MgCl2, 0.001% saponin (Sigma catalog #S4521)] supplemented with 20 uM GDP (Sigma catalog #G7127) in the presence or absence of test compound. The reaction was carried out in 96-well microplates with 0.1 nM [^35S]GTPγS (specific activity=1250 Ci/mmol; Perkin Elmer catalog #NEG030X250UC) in a final volume of 100 uL. After a 90 min room temperature incubation, the reaction was analyzed using a scintillation counter (Perkin Elmer Microbeta instrument). Binding data were analyzed using GraphPad Prism.

Test [1] has as its target T2, recombinant human cannabinoid receptor CB1 (Homo sapiens, UniProt P21554).
T2 construct: (cDNA clone) CNR01L000
As to the kind of experiment: Cannabinoid receptor radioligand binding assay, [3H]-CP 55,940 displacement, hCB1. A digest of the protocol:
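Membranes from HEK-293 cells stably expressing human CB1, 2-10 μg protein, incubated 90 min at room temperature with 0.5 nM [3H]-CP 55,940 in Tris-HCl pH 7.5, MgCl2, EDTA and 0.1% fatty-acid-free BSA. Bound radioactivity counted after rapid filtration; nonspecific binding defined with 1 μM unlabeled CP 55,940.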

[2] abbreviates: GTPγS agonist, HEK-293 membranes, read-out: hCB1 EC50 (GTPyS ag).

Read-outs that look alike come from different tables or passages of the source.

The EC50 is the concentration giving half of the maximal effect. For orientation: IC50 means the concentration that inhibits the measured activity by half.

T2 sequence (P21554 whole entry): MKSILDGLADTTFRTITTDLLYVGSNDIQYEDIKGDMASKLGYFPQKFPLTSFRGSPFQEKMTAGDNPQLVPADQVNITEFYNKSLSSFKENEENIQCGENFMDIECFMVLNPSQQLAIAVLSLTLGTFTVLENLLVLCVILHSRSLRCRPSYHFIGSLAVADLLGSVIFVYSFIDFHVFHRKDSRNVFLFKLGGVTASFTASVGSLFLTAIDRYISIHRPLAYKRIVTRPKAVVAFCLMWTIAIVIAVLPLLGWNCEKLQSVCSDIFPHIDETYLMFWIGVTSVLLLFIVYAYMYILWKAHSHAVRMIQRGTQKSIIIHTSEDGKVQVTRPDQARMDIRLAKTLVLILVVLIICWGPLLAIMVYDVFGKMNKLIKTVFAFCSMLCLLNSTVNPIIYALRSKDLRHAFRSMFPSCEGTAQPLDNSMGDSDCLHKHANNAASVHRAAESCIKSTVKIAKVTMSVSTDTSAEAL
T1 sequence (P21554 whole entry): as above

Consider `Cc1cc2cc(C(=O)c3ccccc3OC(F)(F)F)sc2n1CCN1CCOCC1` [Compound 15, (5-Methyl-6-(2-morpholinoethyl)-6H-thieno[2,3-b]pyrrol-2-yl)(2-(trifluoromethoxy)phenyl)methanone], for which, on human CB1 (hCB1) (setting [2]), the EC50 fell in the range of 100 to 1000 nM. Further, the half-inhibitory concentration (IC50) in test [1] is less than 100 nM. Turning to `Cc1c(Cl)c2cc(C(=O)c3cccc(Cl)c3Cl)sc2n1CCN1CCOCC1` [Compound 27, (4-chloro-5-methyl-6-(2-morpholinoethyl)-6H-thieno[2,3-b]pyrrol-2-yl)(2,3-dichlorophenyl)methanone], on human CB1 (hCB1), the EC50 fell in the range of 100 to 1000 nM. Besides, in test [1], the IC50 was less than 100 nM. Regarding `Cc1cc2cc(C(=O)c3cc(Cl)ccc3Cl)sc2n1CCN1CCOCC1` [Compound 35, (2,5-Dichlorophenyl)(5-methyl-6-(2-morpholinoethyl)-6H-thieno[2,3-b]pyrrol-2-yl)methanone], the EC50 at human CB1 (hCB1) (setting [2]) fell in the range of 100 to 1000 nM. The IC50 in test [1] is 100 to 1000 nM.

With `COc1ccc(C(=O)c2cc3cc(C)n(CCCNC(=O)C(F)(F)F)c3s2)cc1` [Compound 76, 2,2,2-Trifluoro-N-(3-(2-(4-methoxybenzoyl)-5-methyl-6H-thieno[2,3-b]pyrrol-6-yl)propyl)acetamide], the half-maximal effective concentration (EC50) on human CB1 (hCB1) (setting [2]) was less than 100 nM. For the same compound, in test [1], the half-maximal inhibitory concentration (IC50) was 1000 to 10000 nM. On the same counts, the results for `COc1ccc(C(=O)c2cc3cc(C)n(CCC(C)(C)O)c3s2)cc1` [Compound 77, (6-(3-Hydroxy-3-methylbutyl)-5-methyl-6H-thieno[2,3-b]pyrrol-2-yl)(4-methoxyphenyl)methanone] are less than 100 nM and 1000 to 10000 nM. The like results for `Cc1ccc(C(=O)c2cc3cc(C)n(CCN4CCOCC4)c3s2)c(Cl)c1` [Compound 86, (2-Chloro-4-methylphenyl)(5-methyl-6-(2-morpholinoethyl)-6H-thieno[2,3-b]pyrrol-2-yl)methanone] were, in that order, 1000 to 10000 nM and 100 to 1000 nM. On to `COc1ccc(C(=O)c2cc3cc(C)n(CCCN4CCOCC4)c3s2)cc1` [Compound 107, (4-Methoxyphenyl)(5-methyl-6-(3-morpholinopropyl)-6H-thieno[2,3-b]pyrrol-2-yl)methanone], for which the half-maximal effective concentration (EC50) at human CB1 (hCB1) (setting [2]) is 100 to 1000 nM. Further, in test [1], the IC50 was 100 to 1000 nM. Turning to `COc1ccc(C(=O)c2cc3cc(C)n(CCN4CCOCC4)c3s2)c(Cl)n1` [Compound 137, (2-chloro-6-methoxypyridinyl-3-yl)(5-methyl-6-(2-morpholinoethyl)-6H-thieno[2,3-b]pyrrol-2-yl)methanone], the concentration giving a half-maximal response (EC50) on human CB1 (hCB1) (setting [2]) was 1000 to 10000 nM. For the same compound, the half-inhibitory concentration (IC50) in test [1] was 1000 to 10000 nM. Take `COc1ccc(C(=O)c2cc3cc(C)n(CC4CCOCC4)c3s2)c(F)c1` [Compound 145, (2-fluoro-4-methoxyphenyl)(5-methyl-6-((tetrahydro-2H-pyran-4-yl)methyl)-6H-thieno[2,3-b]pyrrol-2-yl)methanone]: the IC50 in test [1] was in the range of 1000 to 10000 nM. As to `CCOc1ccc(C(=O)c2cc3cc(C)n(CCN4CCOCC4)c3s2)cn1` [Compound 150, (6-Ethoxypyridin-3-yl)(5-methyl-6-(2-morpholinoethyl)-6H-thieno[2,3-b]pyrrol-2-yl)methanone], the IC50 in test [1] was greater than 10000 nM. Regarding `COCCN(C)CCn1c(C)cc2cc(C(=O)c3ccc(OC)nc3)sc21` [Compound 157], on human CB1 (hCB1) (setting [2]), the EC50 was greater than 10000 nM. Moreover, the concentration for half-maximal inhibition (IC50) in test [1] fell in the range of 100 to 1000 nM.

Consider `COc1ccc(C(=O)c2cc3cc(C)n(CC(OC)OC)c3s2)cn1` [Compound 161, (6-(2,2-dimethoxyethyl)-5-methyl-6H-thieno[2,3-b]pyrrol-2-yl)(6-methoxypyridin-3-yl)methanone], for which the 50% effective concentration (EC50) at human CB1 (hCB1) (setting [2]) was greater than 10000 nM. Besides, in test [1], the 50% inhibitory concentration (IC50) was in the range of 100 to 1000 nM. For the compound `Cc1cc2cc(C(=O)c3ccc(O)cc3F)sc2n1CCN1CCOCC1` [Compound 165, (2-fluoro-4-hydroxyphenyl)(5-methyl-6-(2-morpholinoethyl)-6H-thieno[2,3-b]pyrrol-2-yl)methanone], the half-maximal effective concentration (EC50) on human CB1 (hCB1) (setting [2]) was greater than 10000 nM. For the same compound, in test [1], the IC50 was 100 to 1000 nM. Regarding `COc1ccc(C(=O)c2cc3cc(C)n(CC4CCC(F)(F)CC4)c3s2)cn1` [Compound 170, (6-((4,4-difluorocyclohexyl)methyl)-5-methyl-6H-thieno[2,3-b]pyrrol-2-yl)(6-methoxypyridin-3-yl)methanone], the half-maximal effective concentration (EC50) on human CB1 (hCB1) (setting [2]) is less than 100 nM. For the same compound, the 50% inhibitory concentration (IC50) in test [1] was less than 100 nM.
